{"source": "patent US20220056123A1", "about": "“USE OF IL-1BETA BINDING ANTIBODIES” (NOVARTIS AG, priority 2018, published 2022)", "key": {"[1]": {"tested_on": "hsCRP", "test": "hsCRP change after gevokizumab treatment in type 2 diabetes patients", "assay_type": "in vivo, human", "settings": "top dose 0.3 mg/kg (~20 mg) Q4W", "excerpt": "FIG. 12. Clinical data after gevokizumab treatment (panel a) and its extrapolation to higher doses (panels b, c, and d). Adjusted percent change from baseline in hsCRP in patients in a). The hsCRP exposure-response relationship is shown in b) for six different hsCRP base line concentrations."}, "[2]": {"tested_on": "SW480", "test": "CRC SW480 xenograft in humanized BLT mice", "assay_type": "in vivo, humanized mouse", "procedure": "(§1) • I. Tumor models: The role of IL-1β in tumor immunity and efficacy of IL-1β blocking antibodies were tested in the following preclinical models: • Xenograft tumors in humanized mouse models: NSCLC (H358), TNBC (MDA-MB231) and CRC (SW480) • Syngeneic tumor models: TNBC (4T1) and lung (LL-2) cancer • II. […] Combination treatments include chemotherapeutic agent, docetaxel (6.25 mg/Kg QW IV), PD-1 pathway inhibitors (anti-human PD-1, pembrolizumab 10 mg/Kg Q5D IP or anti-mouse PD-1, clone 1D2 10 mg/Kg QW IP) and anti-mouse VEGF blocking antibody (clone 4G3, 5 mg/Kg Q5D) were used in combination with anti-IL-1β antibody. Appropriate isotype controls were used. In all experiments, dosing was initiated after tumor implantation. • III. Experimental readouts: activity of therapeutic agents in preclinical models were assessed by the following: • Tumor volume was determined by measurement with calipers throughout the course of the study. Tumor weights in milligrams were determined at end of study • Immunohistochemistry analysis was performed on FFPE NSCLC (H358) xenograft tissue • Changes in immune populations in peripheral blood in CRC (SW480) xenograft humanized model and tumors in syngeneic models (4T1 and LL-2) were assessed by flow cytometry using markers for T cell, myeloid populations"}, "[3]": {"test": "Gevokizumab clinical pharmacokinetics", "assay_type": "in vivo, human"}, "[4]": {"tested_on": "4T1 tumors", "test": "4T1 tumors treated with 01BSUR and docetaxel", "assay_type": "in vivo, Balb/c mice", "procedure": "Treatment of 4T1 Tumors with 01BSUR and Docetaxel Leads to Alterations in the Tumor Microenvironment. Female Balb/c mice with 4T1 tumors implanted subcutaneously (s.c.) on the right flank were treated 8 and 15 days post-tumor implant initiating when the tumors reached about 100 mm^3 with the isotype antibody, docetaxel, 01BSUR, or a combination of docetaxel and 01BSUR. […] 5 days after the first dose, tumors were harvested and analyzed for changes to the infiltrating immune cell populations. This was done again at the end point of the study, 4 days after the second dose.\nas §1"}, "[5]": {"tested_on": "LL2", "test": "Anti-IL-1β in combination with docetaxel in aggressive lung model (LL2)", "assay_type": "in vivo, mouse", "procedure": "Preclinical Data on the Efficacy of Canakinumab in Combination with Docetaxel in the Treatment of Cancer.\nas §1, with “In all experiments, dosing was initiated after tumor implantation. • III.” left out"}, "[6]": {"tested_on": "MDA-MB-231Luc2-TdTomato cells", "test": "Spontaneous human breast cancer metastasis to human bone implants", "assay_type": "in vivo, NOD SCID mice", "procedure": "FIG. 4. Pharmacological blockade of IL-1B inhibits spontaneous metastasis to human bone in vivo. Female NOD-SCID mice bearing two 0.5 cm^3 pieces of human femoral bone received intra-mammary injections of MDA-MB-231Luc2-TdTomato cells. […] All animals were culled 35 days following tumour cell injection. Effects on bone metastases (a) were assessed in vivo and immediately post-mortem by luciferase imaging and confirmed ex vivo on histological sections. Data are shown as numbers of photons per second emitted 2 minutes following sub-cutaneous injection of D-luciferin. Effects on numbers of tumour cells detected in the circulation are shown in (b). *=P<0.01. **=P<0.001. ***=P<0.0001.\n(§2) To model human breast cancer metastasis to human bone implants two human bone discs were implanted subcutaneously into 10-week old female NOD SCID mice (n=10/group) under isofluorane anaesthetic. Mice received an injection of 0.003 mg vetergesic and Septrin was added to the drinking water for 1 week following bone implantation. Mice were left for 4 weeks before injecting 1×10^5 MDA-MB-231 Luc2-TdTomato, MCF7 Luc2 or T47D Luc2 cells in 20% Martigel/79% PBS/1% toluene blue into the two hind mammary fat pads. Primary tumor growth and development of metastases was monitored weekly using an IVIS […] system (Caliper Life Sciences) following sub-cutaneous injection of 30 mg/ml D-luciferin (Invitrogen). On termination of experiments mammary tumors, circulating tumor cells, serum and bone metastases were resected. RNA was processed for downstream analysis by real time PCR, and cell lysates were taken for protein analysis and whole tissue for histology as previously described (Nutter et al., 2014; Ottewell et al., 2014a). […] Tumor cells, serum, and bone were subsequently resected for downstream analysis. Bone metastases were investigated following injection of 5×10^5 MDA-MB-231 GFP (control), MDA-MB-231-IV, MDA-MB-231-IL-1B-positive or MDA-MB-231-IL-1R1-positive cells into the lateral tail vein of 6 to 8-week old female BALB/c nude mice (n=12/group). Tumor growth in bones and lungs was monitored weekly by GFP imaging in live animals. Mice were culled 28 days after tumor cell injection at which timepoint hind limbs, lungs and serum were resected and processed for microcomputed tomography imaging (pCT), histology and ELISA analysis of bone turnover markers and circulating cytokines as described (Holen et al., 2016).\nWhole blood was centrifuged at 10,000×g for 5 minutes and the serum removed for ELISA assays. The cell pellet was re-suspended in 5 ml of FSM lysis solution (Sigma-Aldrich, Pool, UK) to lyse red blood cells. Remaining cells were re-pelleted, washed 3× in PBS and re-suspended in a solution of PBS/10% FCS. Samples from 10 mice per group were pooled prior to isolation of TdTomato positive tumor cells using a MoFlow High performance cell sorter (Beckman Coulter, Cambridge UK) with the […] laser line from a Coherent I-90C tenable argon ion (Coherent, Santa Clara, Calif.). TdTomato fluorescence was detected by a 555LP dichroic long pass and a 580/30 nm band pass filter. Acquisition and analysis of cells was performed using Summit 4.3 software. After sorting, cells were immediately placed in RNA protect cell reagent (Ambion, Paisley, Renfrew, UK) and stored at −80° C. before RNA extraction. For counting numbers of circulating tumor cells, TdTomato fluorescence was detected using a 561 nm laser and an YL1-A filter (585/16 emission filter). Acquisition and analysis of cells was performed using Attune N×T software."}, "[7]": {"tested_on": "CD34+ blood vessels in trabecular bone", "test": "Bone microvasculature after suppression of IL-1β signalling", "assay_type": "in vivo, BALB/c nude mice and C57BL/6 mice", "procedure": "FIG. 7. IL-1β in the bone microenvironment stimulates expansion of the bone metastatic niche. Effects of adding 40 pg/ml or 5 ng/ml recombinant IL-1β to MDA-MB-231 or T47D breast cancer cells is shown in (a) and effects on adding 20 pg/ml, 40 pg/ml or 5 ng/ml IL-1B on proliferation of HS5, bone marrow, or OB1, osteoblasts, are shown in b) and c) respectively. (d) IL-1 driven alterations to the bone vasculature was measured following CD34 staining in the trabecular region of the tibiae from 10-12-week old female IL-1R1 knockout mice. […] Data are shown as mean+/−SEM, *=P<0.01, **=P<0.001, ***=P<0.0001.\nFIG. 8. Suppression of IL-1β signalling affects bone integrity and vasculature. […] Data shown are mean+/−SEM, *=P<0.01, **=P<0.001, ***=P<0.0001 compared with control.\nas §2"}, "[8]": {"tested_on": "HR-positive, HER2-negative advanced breast cancer", "settings": "added to first-line endocrine therapy with tamoxifen/NSAI plus goserelin, pre- and peri-menopausal women; cited from earlier work"}}, "data": [{"compound": "gevokizumab: high-affinity, humanized monoclonal antibody of the IgG2 isotype to interleukin-1β", "values": [{"measurement": "reduction of hsCRP", "setting": "[1]", "value": "up to 45%"}, {"measurement": "animals with significant reduction in tumor volume", "setting": "[2]; one of two experiments", "value": "100 % of animals"}, {"measurement": "animals with slower tumor growth", "setting": "[2]; second experiment, compared to isotype control", "value": "80 % of animals"}, {"measurement": "Bioavailability", "setting": "[3]; administered subcutaneously", "value": "about 56%"}, {"measurement": "pharmacokinetic model", "setting": "[3]; after subcutaneous administration", "value": "linear two-compartment model with first order absorption"}]}, {"compound": "CC(=O)O[C@@]12CO[C@@H]1C[C@H](O)[C@@]1(C)C(=O)[C@H](O)C3=C(C)[C@@H](OC(=O)[C@H](O)[C@@H](NC(=O)OC(C)(C)C)c4ccccc4)C[C@@](O)([C@@H](OC(=O)c4ccccc4)[C@H]21)C3(C)C", "note": "[docetaxel]", "values": [{"measurement": "granulocytic MDSC", "setting": "[4]; 5 days after a single dose", "value": "decrease in granulocytic MDSC"}, {"measurement": "neutrophils in 4T1 tumors", "setting": "[4]; 5 days after a single dose", "value": "decrease in neutrophils"}, {"measurement": "CD4+ and CD8+ T cells expressing TIM-3", "setting": "[4]; four days after a second dose, vs control group", "value": "no change in the TIM-3 expressing cells"}, {"measurement": "tumor growth", "setting": "[4]; treated days 8 and 15 post tumor implant, vs vehicle/isotype control", "value": "delay was enhanced"}, {"measurement": "efficacy (tumor growth)", "setting": "[5]", "value": "modest efficacy"}]}, {"compound": "IL-1Ra: IL-1R antagonist (Anakinra) used to inhibit IL-1β signaling", "values": [{"measurement": "mice with metastasis detected in human bone implants", "setting": "[6]; IL-1Ra 1 mg/kg daily, canakinumab sc every 14 days, from 7 days after tumor cell injection, control 7 out of 10", "value": "4 out of 10"}, {"measurement": "size of bone metastases", "setting": "[6]; luciferase imaging, vs control group", "value": "smaller than those detected in the control group"}, {"measurement": "tumor cells counted in whole blood", "setting": "[6]; placebo 108 tumor cells/ml", "value": 3, "unit": "tumor cells/ml"}, {"measurement": "average length of CD34+ blood vessels in trabecular bone", "setting": "[7]; IL-1Ra 1 mg/kg daily (BALB/c nude), canakinumab single dose (C57BL/6), p<0.01", "value": "reduced the average length"}, {"measurement": "endothelin 1 concentration (ELISA)", "setting": "[7]; compared with control, p<0.01", "value": "reduced concentrations"}, {"measurement": "VEGF concentration (ELISA)", "setting": "[7]; compared with control, p<0.01 IL-1R antagonist, p<0.001 canakinumab", "value": "reduced concentrations"}]}, {"compound": "CN(C)C(=O)c1cc2cnc(Nc3ccc(N4CCNCC4)cn3)nc2n1C1CCCC1", "note": "[ribociclib]", "values": [{"measurement": "progression-free survival (PFS)", "setting": "[8]", "value": "significantly prolonged progression-free survival"}]}]}
